Measured values published in paper PMC10892120, “Design, Synthesis and Biological Assessment of N′-(2-Oxoindolin-3-ylidene)-6-methylimidazo[2,1-b]thiazole-5-carbohydrazides as Potential Anti-Proliferative Agents toward MCF-7 Breast Cancer” (Pharmaceuticals, 2024).

What was measured:
[1] = tested on: Bcl-2; experiment: RT-PCR gene expression in treated MCF-7 cells: Bcl-2; type: cell-based; conditions: treated MCF-7 cells vs untreated control MCF-7 (=1)
Experimental: (§1) The gene expression levels of apoptosis genes in MCF-7 cells were measured using RT-PCR to validate the apoptosis-inducing behaviors of the potent lead compound 6i in MCF-7 cells.
(§2) The gene expression levels of apoptosis genes were evaluated in MCF-7 cells using the following approaches in the Supplementary Data, page 43.
(§3) Inhibitor solution of each well labeled as “Test Inhibitor”. For the “Positive Control" and “Blank”, add 5 μl of the same solution without inhibitor (Inhibitor buffer). Prepare 3 ml of 1x Kinase Buffer 1 by mixing 600 μl of 5x Kinase Buffer 1 with 2400 μl water. 3 ml of 1x Kinase Buffer 1 is sufficient for 100 reactions. To the wells designated as "Blank", add 20 μl of 1x Kinase Buffer 1.
(§4) Thaw VEGFR2 enzyme on ice. Upon first thaw, briefly spin tube containing enzyme to recover full content of the tube. Calculate the amount of VEGFR2 required for the assay and dilute enzyme to 1 ng/μl with 1x Kinase Buffer 1. Store remaining undiluted enzyme in aliquots at -80°C. Note:
(§5) VEGFR2 enzyme is sensitive to freeze/thaw cycles. Avoid multiple freeze/thaw cycles. […]
(§6) use thawed aliquots or diluted enzyme. […]
(§7) thoroughly, and then centrifuge at 4°C to collect contents to the bottom of the tube. […] Preparation of a reaction cocktail is crucial in quantitative PCR applications to reduce pipetting errors and maximize assay precision and accuracy. […]

[2] = target: VEGFR-2 (Homo sapiens, UniProt P35968); experiment: In vitro VEGFR-2 kinase inhibition assay; type: biochemical; conditions: mean ± SD of three experiments
[3] = tested on: MCF-7; experiment: Apoptotic assay, Annexin V/PI analysis in MCF-7; type: cell-based; conditions: MCF-7, Annexin V/PI, % given only in Figure 5
Experimental: In comparison to the control cells, the apoptotic assay employing Annexin V/PI analysis for compound 6i generated a substantial amount of early and late apoptosis in MCF-7. Compound 6i induced early apoptosis in MCF-7 at rate of 22.05, compared with the control MCF-7 (0.43) (Table 6 and Figure 5).
(§8) These were performed using the approach described in the Supplementary Data, page 44 [46]. […]
(§9) thoroughly, and then centrifuge at 4°C to collect contents to the bottom of the tube. Chill on ice before using. Centrifuge again briefly at 4°C if needed. Preparation of a reaction cocktail is crucial in quantitative PCR applications to reduce pipetting errors and maximize assay precision and accuracy. Assemble the reaction cocktail with all required components except sample template (total RNA) and dispense equal aliquots into each reaction tube. Add target sample to each reaction as the final step. Addition of sample as 5–10 μl volumes will improve assay precision. Replicate samples should be assembled as a master mix with a single addition of sample template.
(§10) Cell cycle analysis and apoptosis
(§11) Transfer the previously prepared cells from 4 °C to the bench-top and equilibrate to room temperature. Gently re-suspend cells by inverting the tube or by gentleup and down pipetting.
(§12) There may be visible thin salt crystals in the tube but this will not affect the sedimentation of the cells in the next step. Pellet the cells at 500 x g for 5 minutes. Carefully aspirate the supernatant without disrupting the pellet. It is better to incompletely remove the supernatant than to accidently aspirate part of the pellet and lose cells. Wash the cells by gently resuspending in 1 mL 1X PBS.
(§13) Again, pellet the cells at 500 x g for 5 minutes and carefully remove the supernatant. Gently resuspend the cell pellet in 200 μL 1X Propidium Iodide + RNase Staining Solution. Then ensure that the cells are fully resuspended. Incubate at 37 °C in the dark for 20 – 30 minutes. Place tubes on ice (still in the dark) and prepare for flow cytometry analysis. Gently resuspend cells that settled during the incubation by pipetting up and down. If desired, pass cells through an appropriate filter (not provided) to remove cell aggregates. Run samples on flow cytometer: Set appropriate FSC vs. SSC gates to exclude debris and cell aggregates. Collect Propidium iodide fluorescence in FL2.
The Protein Data Bank (http://www.rcsb.org) was utilized to obtain the 3D structures of […]
was used to conduct docking studies on established analogues with the VEGFR-2 active site. This program was run with a searching grid that was stretched across ligand molecules, with box […]
parameters set to default. The highest scoring posit ion for every compound was chosen after docking it into the crystal structure. […]

[4] = tested on: Bax; experiment: RT-PCR gene expression in treated MCF-7 cells: Bax; type: cell-based; conditions: treated MCF-7 cells vs untreated control MCF-7 (=1)
Experimental: as §1, §2, §3, §4, §5, §6, §7

[5] = tested on: MCF-7; experiment: Cell cycle analysis (propidium iodide flow cytometry) in MCF-7; type: cell-based; conditions: MCF-7 cell cycle distribution
Experimental: Compound 6i arrested cells in the G2/M phase with %G2/M = 27.07, compared with %G2/M = 11.31 for the control MCF-7 (Table 5 and Figure 4).
as §8, §9, §10, §11, §12
as §13, with “Run samples on flow cytometer: Set appropriate FSC vs. SSC gates to exclude debris and cell aggregates.” left out, “FL2. […]” for “FL2.”

[6] = tested on: Caspase-8; experiment: RT-PCR gene expression in treated MCF-7 cells: caspase 8; type: cell-based; conditions: treated MCF-7 cells vs untreated control MCF-7 (=1)
Experimental: as §1, §2, §3, §4, §5, §6, §7

Chain of VEGFR-2 (P35968 20-1356): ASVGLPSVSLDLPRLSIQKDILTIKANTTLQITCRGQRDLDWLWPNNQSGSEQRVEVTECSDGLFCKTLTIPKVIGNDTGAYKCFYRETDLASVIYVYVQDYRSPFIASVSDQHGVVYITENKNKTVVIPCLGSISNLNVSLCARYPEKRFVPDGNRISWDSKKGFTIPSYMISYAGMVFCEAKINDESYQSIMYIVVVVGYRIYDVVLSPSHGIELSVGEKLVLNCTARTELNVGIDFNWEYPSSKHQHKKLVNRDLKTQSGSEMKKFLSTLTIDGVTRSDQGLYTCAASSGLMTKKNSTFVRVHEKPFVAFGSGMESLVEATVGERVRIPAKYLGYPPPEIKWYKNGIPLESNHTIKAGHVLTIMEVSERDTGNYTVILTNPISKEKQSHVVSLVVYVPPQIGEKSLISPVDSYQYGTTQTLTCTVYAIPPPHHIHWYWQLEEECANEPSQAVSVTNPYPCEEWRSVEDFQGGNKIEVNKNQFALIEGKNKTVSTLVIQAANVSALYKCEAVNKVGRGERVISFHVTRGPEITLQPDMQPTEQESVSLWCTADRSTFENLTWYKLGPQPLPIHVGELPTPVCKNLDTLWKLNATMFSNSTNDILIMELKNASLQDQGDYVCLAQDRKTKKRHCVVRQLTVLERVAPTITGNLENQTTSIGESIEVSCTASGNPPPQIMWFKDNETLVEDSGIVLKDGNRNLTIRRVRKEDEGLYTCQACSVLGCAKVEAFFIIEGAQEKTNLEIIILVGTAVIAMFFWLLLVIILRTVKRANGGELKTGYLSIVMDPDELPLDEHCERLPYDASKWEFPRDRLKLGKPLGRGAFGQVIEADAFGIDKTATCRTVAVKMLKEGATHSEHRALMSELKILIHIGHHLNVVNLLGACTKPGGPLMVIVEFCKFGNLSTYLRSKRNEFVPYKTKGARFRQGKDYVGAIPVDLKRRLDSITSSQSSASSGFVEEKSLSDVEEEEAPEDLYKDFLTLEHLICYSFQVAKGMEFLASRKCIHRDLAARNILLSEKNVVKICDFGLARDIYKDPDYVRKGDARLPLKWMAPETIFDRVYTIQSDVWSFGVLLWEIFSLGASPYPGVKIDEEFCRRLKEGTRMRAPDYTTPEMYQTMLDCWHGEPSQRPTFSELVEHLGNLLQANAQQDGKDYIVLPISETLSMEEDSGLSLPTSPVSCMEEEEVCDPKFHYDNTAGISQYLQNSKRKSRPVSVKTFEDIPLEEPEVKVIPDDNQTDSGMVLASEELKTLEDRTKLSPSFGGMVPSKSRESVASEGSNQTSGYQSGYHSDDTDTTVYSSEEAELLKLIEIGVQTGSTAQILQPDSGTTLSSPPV

Q: For `CCCCN1C(=O)C(=NNC(=O)c2c(C)nc3sccn23)c2ccccc21` [Compound 6i, N′-(1-Butyl-2-oxoindolin-3-ylidene)-6-methylimidazo[2,1-b]thiazole-5-carbohydrazide], which “RT-PCR Fold Change Bcl-2” value [1] is on record?
A: 0.359 fold

Q: What about the IC50 [2] of the same compound?
A: 330 ± 10 nM

Q: And the “Apoptosis Late” value ([3]; control 0.11)?
A: 7.61%

Q: What about the “Apoptosis Early” value ([3]; control 0.43) of the same compound?
A: 22.05%

Q: What about the Necrosis ([3]; control 1.37) of the same compound?
A: 3.15%

Q: What about the “Apoptosis Total” value ([3]; control 1.91) of the same compound?
A: 32.81%

Q: What about the melting point of the same compound?
A: 250 to 251 °C

Q: And the “RT-PCR Fold Change Bax” value [4]?
A: 4.337 fold

Q: And the “%G2/M” value ([5]; control 11.31)?
A: 27.07%

Q: And the “%S” value ([5]; control 23.96)?
A: 19.27%

Q: What about the “%G0–G1” value ([5]; control 64.73) of the same compound?
A: 53.66%

Q: What about the “RT-PCR Fold Change Caspase-8” value [6] of the same compound?
A: 2.727 fold
